In patent publication US11185516B2 (Laboratorios Silanes S.A. DE C.V., priority 2016, dated 2021):

Columns and labels:
IRS2 knockout mice = details: 100 mg/kg/day, 4 weeks
Source text: Insulin receptor substrate 2 (IRS2) is a cytoplasmic signaling molecule that mediates effects of insulin, insulin-like growth factor 1, and other cytokines by acting as a molecular adaptor between diverse receptor tyrosine kinases and downstream effectors. Mice lacking IRS2 (e.g., IRS2 knockout mice) have a diabetic phenotype and increased serum leptin levels. Leptin is a hormone made by adipose cells that regulates appetite and inhibits hunger.
The levels of fasting serum leptin, at the beginning and at the end of the treatments, were determined with a kit (Sigma) following the instructions by the manufacturer.

insulin receptor (IRβ) = details: 10 mM, 3 h
Source text: Next, cells were washed with PBS and their membrane proteins were extracted.

[1] = system: proIL-1β, TNFα, iNOS, IL-6, MCP-1 and IL-12; assay: Inflammation marker expression in palmitate-stimulated L1 adipocytes (RT-qPCR); type: cell-based; details: 10 mM, palmitate 500 μM, 24 h
Method: Palmitate is a saturated fatty acid that simulates an experimental obese state. It can be used as a pro-inflammatory stimulant for cytokines such as proIL-1β, TNFα, iNOS, IL-6, MCP-1 and IL-12.
Next, the relative expression of inflammation markers was analyzed by RT and qPCR using HPRT-1 as a normalizer and the untreated cell expression levels as a reference (for MCP-1 and IL-12) or those treated palmitate. After the treatments, culture media were collected and subsequently analyzed, cells were washed with PBS, and RNA was extracted (illustra RNAspin Mini, GE Healthcare) and reverse transcribed (High Capacity cDNA Reverse Transcription Kit, Life Technologies). The expression of the genes that were the object of the study was analyzed by qPCR using specific probes (TaqMan® Gene Expression Assays, Life Technologies). The relative expression (RQ), represented in the figure, was calculated by the ΔΔCt method.

C2C12 myotubes = assay: Glucose concentration of C2C12 myotube cultures in M1 macrophage conditioned media; type: cell-based, mouse; details: macrophages treated with 10 mM for 2 h, then LPS/IFNγ 16 h
Method: There is considerable evidence showing that inflammation and hyperglycemia are interconnected: inflammation induces hyperglycemia and reciprocally hyperglycemia induces inflammation with the molecular bases not elucidated yet. To explore the participation of GPBP, glucose intake under normoglycemic conditions with conditioned media generated by macrophages differentiated to a proinflammatory M1 phenotype was monitored.
[…]. The glucose concentration of the myotube cultures was determined at different times with Glucocard (Arkray). The controls used were the C2C12 cultured with media conditioned with no stimulated macrophages (Cells) or with M1 conditioned media (M1). The initial glucose levels (time 0) were used as a reference (100%) in each series.

C57BL/6 mice = assay: Glycemia and dietary intake in C57BL/6 mice; type: in vivo, mouse; details: 1 week
Source text: The mean glycemic values at the beginning and end of the experiment are represented for each group (n=3) with their standard deviations.

GPBP and AKT = GPBP and AKT (Homo sapiens, UniProt Q9Y5P4); details: 5 mM
Sequence of GPBP and AKT (Q9Y5P4 whole entry): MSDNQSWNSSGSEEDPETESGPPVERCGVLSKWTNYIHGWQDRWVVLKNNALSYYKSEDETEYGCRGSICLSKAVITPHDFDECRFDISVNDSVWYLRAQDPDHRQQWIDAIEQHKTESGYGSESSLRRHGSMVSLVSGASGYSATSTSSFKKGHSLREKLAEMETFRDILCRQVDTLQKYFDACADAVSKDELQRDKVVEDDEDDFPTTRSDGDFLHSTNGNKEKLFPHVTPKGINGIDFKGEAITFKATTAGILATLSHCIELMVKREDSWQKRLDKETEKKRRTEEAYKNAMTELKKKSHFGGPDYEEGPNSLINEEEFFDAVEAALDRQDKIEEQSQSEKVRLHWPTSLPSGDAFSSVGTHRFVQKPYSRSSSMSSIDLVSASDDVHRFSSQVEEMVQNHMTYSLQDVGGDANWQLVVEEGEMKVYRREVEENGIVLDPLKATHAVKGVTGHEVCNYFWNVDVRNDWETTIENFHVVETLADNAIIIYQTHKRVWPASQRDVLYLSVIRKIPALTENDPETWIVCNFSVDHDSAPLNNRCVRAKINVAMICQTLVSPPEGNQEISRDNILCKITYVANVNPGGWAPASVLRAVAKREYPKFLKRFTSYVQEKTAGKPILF
Method: Two hundred nanograms of AS160 (Origene Technologies) was incubated either in the absence (−) or in the presence (+) of FLAG-GPBP (270 ng), AKT (Millipore) (200 ng) and SLN1 or SLN2 (5 mM) in phosphorylation solution (β-glycerophosphate 25 mM (pH 7.0), EDTA 0.5 mM, EGTA 0.5 mM, MgCl2 8 mM, MnCl2 5 mM, DTT 1 mM) without ATP for 10 min at RT, after which [γ-^32P] ATP (Perkin Elmer) (0.132 μM) and ATP (Sigma) (100 μM) were added. Reaction cocktails (25 μl) were incubated at 30° C. for 15 min, and stirred (350 rpm).

VAPA and VAMPs = assay: Colocalization of VAPA and VAMPs (FIG. 18)
[2] = system: IRS2 knockout mice (KO IRS2); assay: Body weight in IRS2 knockout mice; type: in vivo, mouse; details: 100 mg/kg/day, 8 weeks
Method: Body weight of the mice was measured prior to the onset of treatment, at 4 weeks after treatment, and at 8 weeks after treatment. There were 8 mice in each group at the pre-treatment and 4-week treatment time points. […] Statistical differences between the experimental groups shown in FIG. 20 were assessed by Student's T test. P value of <0.05 is indicated by *.

GPBP = GPBP (Homo sapiens, UniProt Q9Y5P4); details: 1 mM, FIG. 6A
Sequence of GPBP (Q9Y5P4 whole entry): as above
Method: The reaction mixtures (25 μl) were incubated at 30° C. with shaking (350 rpm) for 15 min, and then analyzed by SDS PAGE. The proteins were electrotransferred to a PVDF membrane (Immobilon P, Millipore). The membranes were subjected to autoradiography (^32P), and then detection with anti-FLAG antibodies (ECL Prime, GE Healthcare, WB anti-FLAG).

[3] = 2:1 complex (2 molecules of metformin for 1 of glycine), aqueous solution

Method for type 2 diabetes patients: The aim of this study was to determine the effect of DMMET-01 on insulin sensitivity by Glucose CLAMP technique in Mexican type 2 diabetes patients, after 2 months of treatment.
Primary Outcome Measures: Insulin sensitivity.
Secondary Outcome Measures: Insulin, fasting glucose, HbA1c, Adverse Events, Creatinine, Total Cholesterol, HDL, Triglycerides, Uric acid, AST, ALT, FA, and DHL.
60 days: 30 days, dose of 1050.6 mg per day (before dinner) and 30 days, dose 1050.6 mg twice a day 30 more days (before breakfast before dinner).
60 days: 30 days placebo once a day (before dinner)+30 days twice a day (before breakfast and before dinner).

CN(C)C(=N)NC(=N)N [Metformin glycinate, N,N-dimethylimidodicarbonimidic diamide glycinate]
reduction of fasting serum leptin levels compared to metformin hydrochloride (IRS2 knockout mice): greater reduction of fasting serum leptin levels
fasting serum leptin levels (IRS2 knockout mice; end vs beginning of treatment): reduced fasting serum leptin levels
accumulation of IRβ on the cell membrane vs metformin hydrochloride (insulin receptor (IRβ)): significantly more accumulation
anti-inflammatory effectiveness, comparison of the two salts [1]: significantly more effective than metformin hydrochloride
inflammatory response of palmitate-stimulated adipocytes [1]: attenuated the inflammatory response
glucose levels of myotube cultures (hyperglycemic levels) (C2C12 myotubes): maintained values at normoglycemic levels
glycemia, end vs beginning (C57BL/6 mice; 100 mg/kg/day mixed with solid food, n=3): significantly reduced glycemia
extent of glycemia reduction compared to metformin hydrochloride (C57BL/6 mice; 100 mg/kg/day): to a greater extent
food intake compared to untreated mice (C57BL/6 mice; 100 mg/kg/day): food intake was greater
GPBP and AKT cross activation (GPBP and AKT): counteracted GPBP and AKT cross activation
colocalization of VAPA and VAMPS (VAPA and VAMPs): reduced colocalization
average body weight, post- vs pre-treatment [2]: significantly lower after 8 weeks than before treatment
A1c level after two months treatment (type 2 diabetes patients; 1050.6 mg per day 30 days, then 1050.6 mg twice a day 30 days, p=0.008): 7.1±1.0%
A1c level before treatment (type 2 diabetes patients; DMMET01 group, baseline): 8.1±0.8%
reduction of the A1c level (type 2 diabetes patients; after two months treatment): more than 1%
sensitivity to insulin (Glucose CLAMP) (type 2 diabetes patients; after two months treatment): did not change
adverse events vs placebo (type 2 diabetes patients; two months treatment): No statistically significant difference in adverse events
Tmax, comparative analysis (620 mg BID vs metformin hydrochloride 1000 mg BID): statistically significant differences
bioequivalence (90% C.I. in magnitude and velocity) (620 mg against metformin hydrochloride 500 mg): within the theoretical ranges of bioequivalence
pharmacokinetic parameters of test vs reference (metformin hydrochloride) (Stage B, multiple doses): similar
GPBP auto-phosphorylation activity (GPBP): inhibition of GPBP auto-phosphorylation activity
complexation constant [3]: 712±19
